The results in this text go back to ChEMBL document CHEMBL1681662, “A new structural alert for benzimidazoles: 2,6-dimethylphenyl substituents increase mutagenic potential and time-dependent CYP3A4 inhibition risk” (Bioorg Med Chem Lett, 2011).

The target in experiment [1] is T1, Cytochrome P450 3A4 (Homo sapiens, UniProt P08684). The experiment in a line: Inhibition of CYP3A4 in human liver microsome measured after 30 mins preincubation in presence of NADPH. In kind it is ADME, microsomes. Background: Microsomes from liver hold many membrane-bound enzymes, among them those of drug oxidation.
The target of experiment [2] is T1, Cytochrome P450 3A4. The experiment in a line: Inhibition of CYP3A4. In kind it is ADME.
The subject of experiment [3] is Salmonella typhimurium. The experiment in a line: Mutagenic activity in Salmonella Typhimurium TA98 assessed as fold increase in maximum revertant at 300 ug by Ames test in presence of S9 fraction. It is filed as functional, Salmonella enterica subsp. enterica serovar Typhimurium.
For experiment [4], the system named is Salmonella typhimurium. The experiment in a line: Mutagenic activity in Salmonella Typhimurium TA98 assessed as fold increase in maximum revertant at 100 ug by Ames test. It is filed as functional, Salmonella enterica subsp. enterica serovar Typhimurium. A general note: The Ames test detects mutagens through reverse mutation in bacteria.
Experiment [5] has as its system Salmonella typhimurium. The experiment in a line: Mutagenic activity in Salmonella Typhimurium TA100 assessed as fold increase in maximum revertant at 1000 ug by Ames test in presence of S9 fraction. In kind it is functional.
Experiment [6] concerns Salmonella typhimurium. The experiment in a line: Mutagenic activity in Salmonella Typhimurium TA100 assessed as fold increase in maximum revertant at 1000 ug by Ames test. It is filed as functional.
The mark [7] stands for this setting: Salmonella enterica subsp. enterica serovar Typhimurium.

Molecules are shown by their SMILES. Activity calls are given as the source filed them. The rule behind the calls is not given here.

T1 sequence (P08684 whole entry): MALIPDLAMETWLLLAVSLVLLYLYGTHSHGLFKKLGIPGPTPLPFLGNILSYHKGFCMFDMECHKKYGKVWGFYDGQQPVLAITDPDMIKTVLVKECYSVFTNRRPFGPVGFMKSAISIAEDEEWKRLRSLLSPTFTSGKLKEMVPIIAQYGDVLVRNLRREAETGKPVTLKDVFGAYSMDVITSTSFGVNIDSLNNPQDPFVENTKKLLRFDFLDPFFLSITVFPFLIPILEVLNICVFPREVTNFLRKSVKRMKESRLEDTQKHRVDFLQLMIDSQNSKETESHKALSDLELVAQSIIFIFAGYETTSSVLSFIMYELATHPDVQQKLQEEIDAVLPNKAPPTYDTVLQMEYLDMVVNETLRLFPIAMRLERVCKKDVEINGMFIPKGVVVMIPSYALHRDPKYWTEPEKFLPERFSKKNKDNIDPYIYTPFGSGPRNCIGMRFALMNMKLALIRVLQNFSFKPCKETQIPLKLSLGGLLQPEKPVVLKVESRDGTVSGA

For the compound `Cc1ccccc1-c1nc2ccc(C(=O)Nc3ccc4ccccc4n3)cc2[nH]1`, the 50% inhibitory concentration (IC50) on Cytochrome P450 3A4 [1] and against Cytochrome P450 3A4 [2] was greater than 50 µM each time.
On to `Cc1cc(CCC(=O)O)cc(C)c1-c1nc2ccc(C(=O)Nc3ccc4ccccc4n3)cc2[nH]1`, for which the “fold change (FC)” value in the experiment with Salmonella typhimurium [3] is 14.57; in the experiment on Salmonella typhimurium [4], 5.86.
In the case of `Cc1cccc(C)c1-c1nc2ccc(C(=O)Nc3ccc4ccccc4n3)cc2[nH]1`, the IC50 at Cytochrome P450 3A4 [1] was 2.7 µM; at Cytochrome P450 3A4 [2] it was 7.3 µM.
On to `O=C(Nc1ccc2ccccc2n1)c1ccc2nc(-c3c(Cl)cc(CCCP(=O)(O)O)cc3Cl)[nH]c2c1`, for which the outcome in the experiment on Salmonella typhimurium [5] (setting [7]) and in the experiment with Salmonella typhimurium [6] (setting [7]) was inactive.
As for `O=C(O)CCc1cc(Cl)c(-c2nc3ccc(C(=O)Nc4ccc5ccccc5n4)cc3[nH]2)c(Cl)c1`, the outcome in the experiment with Salmonella typhimurium [3] (setting [7]) and in the experiment on Salmonella typhimurium [4] (setting [7]) was inactive.
`Cc1cc(CCCP(=O)(O)O)cc(C)c1-c1nc2ccc(C(=O)Nc3ccc4ccccc4n3)cc2[nH]1`: the “fold change (FC)” value in the experiment with Salmonella typhimurium [5] is recorded as 2; in the experiment with Salmonella typhimurium [6], 2.48.

A word on the IC50: it is the concentration needed to halve the response being measured.
